Assay results as given in patent publication US20230011869A1 (Hoffmann-La Roche Inc., priority 2018, published 2023).
Where a name gives a salt, the structure may show the parent alone.

System: Acinetobacter baumannii ATCC17978
Assay: Antimicrobial susceptibility testing: 90% growth inhibitory concentration (IC90) determination, Iso-Sensitest broth
Format: cell-based
Conditions: 90% growth inhibitory concentration, Acinetobacter baumannii ATCC17978, Iso-Sensitest broth, OD 600 nm over 16 h; read-out: ATCC17978 IC90
Protocol: Antimicrobial Susceptibility Testing:
90% Growth Inhibitory Concentration (IC90) Determination
The in vitro antimicrobial activity of the compounds was determined according to the following procedure:
The assay used a 10-points Iso-Sensitest broth medium to measure quantitatively the in vitro activity of the compounds against Acinetobacter baumannii ATCC17978 and Acinetobacter baumannii ATCC17961.
Microtiter plates were incubated at 35±2° C.
Bacterial cell growth was determined with the measurement of optical density at λ=600 nm each 20 minutes over a time course of 16 h. Growth inhibition was calculated during the logarithmic growth of the bacterial cells with determination of the concentration inhibiting 50% (IC50) and 90% (IC90) of the growth.

SMILES	IC90 [nM]
COc1ccc(-c2cnc3c(Nc4ccc(C(=O)N5CCN(CCN(C)C)CC5)c(C)c4)nccn23)cc1F [Example 35, (4-(2-(dimethylamino)ethyl)piperazin-1-yl)(4-((3-(3-fluoro-4-methoxyphenyl)imidazo[1,2-a]pyrazin-8-yl)amino)-2-methylphenyl)methanone]	250
Cc1cc(Nc2nccn3c(-c4ccc(OC(F)F)cc4)cnc23)ccc1C(=O)N1CCC(N2CCN(C)CC2)CC1 [Example 36, (4-((3-(4-(difluoromethoxy)phenyl)imidazo[1,2-a]pyrazin-8-yl)amino)-2-methylphenyl)(4-(4-methylpiperazin-1-yl)piperidin-1-yl)methanone]	250
Cc1cc(Nc2nccn3c(-c4ccc(OC(F)F)cc4)cnc23)ccc1C(=O)N1CCN(C(=O)CN(C)C)CC1 [Example 38, 1-(4-(4-((3-(4-(difluoromethoxy)phenyl)imidazo[1,2-a]pyrazin-8-yl)amino)-2-methylbenzoyl)piperazin-1-yl)-2-(dimethylamino)ethanone]	220
COc1ccc(-c2cnc3c(Nc4ccc(C(=O)N5CCC(C(=O)N6CCOC(CN)C6)CC5)c(C)c4)nccn23)cc1F (centres unmarked) [Example 39, (4-(2-(aminomethyl)morpholine-4-carbonyl)piperidin-1-yl)(4-((3-(3-fluoro-4-methoxyphenyl)imidazo[1,2-a]pyrazin-8-yl)amino)-2-methylphenyl)methanone hydrochloride]	260
CNCCNC(=O)C1CCN(C(=O)c2ccc(Nc3nccn4c(-c5ccc(OC)c(F)c5)cnc34)cc2C)CC1 [Example 40, 1-(4-((3-(3-fluoro-4-methoxyphenyl)imidazo[1,2-a]pyrazin-8-yl)amino)-2-methylbenzoyl)-N-(2-(methylamino)ethyl)piperidine-4-carboxamide hydrochloride]	280
COc1ccc(-c2cnc3c(Nc4ccc(C(=O)N5CCN(c6nccn6C)CC5)c(C)c4)nccn23)cc1F [Example 41, (4-((3-(3-fluoro-4-methoxyphenyl)imidazo[1,2-a]pyrazin-8-yl)amino)-2-methylphenyl)(4-(1-methyl-1H-imidazol-2-yl)piperazin-1-yl)methanone]	110
COc1ccc(-c2cnc3c(Nc4ccc(C(=O)N5CCNCC5CO)c(C)c4)nccn23)cc1F (centres unmarked) [Example 42, (4-((3-(3-fluoro-4-methoxyphenyl)imidazo[1,2-a]pyrazin-8-yl)amino)-2-methylphenyl)(2-(hydroxymethyl)piperazin-1-yl)methanone]	270
Cc1cc(Nc2nccn3c(-c4ccc(OC(F)F)cc4)cnc23)ccc1C(=O)N1CCC(C(=O)N2CC3(C2)CN(C2CC2)C3)CC1 [Example 44, (4-(6-cyclopropyl-2,6-diazaspiro[3.3]heptane-2-carbonyl)piperidin-1-yl)(4-((3-(4-(difluoromethoxy)phenyl)imidazo[1,2-a]pyrazin-8-yl)amino)-2-methylphenyl)methanone]	280
COc1ccc(-c2cnc3c(Nc4ccc(C(=O)N5CCC(C(=O)NCCCN(C)C)CC5)c(C)c4)nccn23)cc1F [Example 46, N-[3-(dimethylamino)propyl]-1-[4-[[3-(3-fluoro-4-methoxyphenyl)imidazo[1,2-a]pyrazin-8-yl]amino]-2-methylbenzoyl]piperidine-4-carboxamide]	200
COc1ccc(-c2cnc3c(Nc4ccc(C(=O)N5CCC(C(=O)NCCN(C)C)CC5)c(C)c4)nccn23)cc1F [Example 47, N-[2-(dimethylamino)ethyl]-1-[4-[[3-(3-fluoro-4-methoxyphenyl)imidazo[1,2-a]pyrazin-8-yl]amino]-2-methylbenzoyl]piperidine-4-carboxamide]	140
COc1ccc(-c2cnc3c(Nc4ccc(C(=O)N5CCC(C(=O)N6CCNC(C(=O)O)C6)CC5)c(C)c4)nccn23)cc1F (centres unmarked) [Example 48, 4-[1-[4-[[3-(3-fluoro-4-methoxyphenyl)imidazo[1,2-a]pyrazin-8-yl]amino]-2-methylbenzoyl]piperidine-4-carbonyl]piperazine-2-carboxylic acid;hydrochloride]	930

Same assay, conditions: Acinetobacter baumannii, ATCC17978, 16 h, read-out: ATCC17978 IC90, 90% growth inhibitory concentration, Acinetobacter baumannii ATCC17978, Iso-Sensitest broth, OD 600 nm over 16 h

SMILES	IC90 [nM]
COc1ccc(-c2cnc3c(Nc4ccc(C(=O)N5CCC(CN)CC5)c(C)c4)nccn23)cc1F [Example 34, (4-(aminomethyl)piperidin-1-yl)(4-((3-(3-fluoro-4-methoxyphenyl)imidazo[1,2-a]pyrazin-8-yl)amino)-2-methylphenyl)methanone hydrochloride]	190
Cc1cc(Nc2nccn3c(-c4ccc(OC(F)F)cc4)cnc23)ccc1C(=O)N1CCC(C(=O)N2CCOC(CN)C2)CC1 (centres unmarked) [Example 43, (4-(2-(aminomethyl)morpholine-4-carbonyl)piperidin-1-yl)(4-((3-(4-(difluoromethoxy)phenyl)imidazo[1,2-a]pyrazin-8-yl)amino)-2-methylphenyl)methanone hydrochloride]	220
Cc1cc(Nc2nccn3c(-c4ccc(OC(F)F)cc4)cnc23)ccc1C(=O)N1CCC(N2CCNCC2)CC1 [Example 45, (4-((3-(4-(difluoromethoxy)phenyl)imidazo[1,2-a]pyrazin-8-yl)amino)-2-methylphenyl)(4-(piperazin-1-yl)piperidin-1-yl)methanone hydrochloride]	190
CNCCCNC(=O)C1CCN(C(=O)c2ccc(Nc3nccn4c(-c5ccc(OC)c(F)c5)cnc34)cc2C)CC1 [Example 49, 1-(4-((3-(3-fluoro-4-methoxyphenyl)imidazo[1,2-a]pyrazin-8-yl)amino)-2-methylbenzoyl)-N-(3-(methylamino)propyl)piperidine-4-carboxamide hydrochloride]	270
CN[C@@H]1CCN(C(=O)C2CCN(C(=O)c3ccc(Nc4nccn5c(-c6ccc(OC)c(F)c6)cnc45)cc3C)CC2)C1 [Example 50, (R)-(1-(4-((3-(3-fluoro-4-methoxyphenyl)imidazo[1,2-a]pyrazin-8-yl)amino)-2-methylbenzoyl)piperidin-4-yl)(3-(methylamino)pyrrolidin-1-yl)methanone hydrochloride]	290
CNCCCCNC(=O)C1CCN(C(=O)c2ccc(Nc3nccn4c(-c5ccc(OC)c(F)c5)cnc34)cc2C)CC1 [Example 51, 1-(4-((3-(3-fluoro-4-methoxyphenyl)imidazo[1,2-a]pyrazin-8-yl)amino)-2-methylbenzoyl)-N-(4-(methylamino)butyl)piperidine-4-carboxamide hydrochloride]	290
COc1ccc(-c2cnc3c(Nc4ccc(C(=O)N5CCC(C(=O)NCCCN)CC5)c(C)c4)nccn23)cc1F [Example 52, N-(3-aminopropyl)-1-(4-((3-(3-fluoro-4-methoxyphenyl)imidazo[1,2-a]pyrazin-8-yl)amino)-2-methylbenzoyl)piperidine-4-carboxamide hydrochloride]	230
COc1ccc(-c2cnc3c(Nc4ccc(C(=O)N5CCC(C(=O)N6CCNC(CO)C6)CC5)c(C)c4)nccn23)cc1F (centres unmarked) [Example 53, (1-(4-((3-(3-fluoro-4-methoxyphenyl)imidazo[1,2-a]pyrazin-8-yl)amino)-2-methylbenzoyl)piperidin-4-yl)(3-(hydroxymethyl)piperazin-1-yl)methanone 2,2,2-trifluoroacetate]	270

Same assay, conditions: read-out: ATCC17978 IC90; 90% growth inhibitory concentration, Acinetobacter baumannii ATCC17978, Iso-Sensitest broth, OD 600 nm over 16 h; hydrochloride

SMILES	IC90 [nM]
Cc1cc(Nc2nccn3c(-c4ccc(OC(F)F)cc4)cnc23)ccc1C(=O)N1CCN(C(=O)CN)CC1 [Example 37, 2-amino-1-(4-(4-((3-(4-(difluoromethoxy)phenyl)imidazo[1,2-a]pyrazin-8-yl)amino)-2-methylbenzoyl)piperazin-1-yl)ethanone hydrochloride]	180
